pIC50: −log10 of the molar value.
Experiments:
MLK1 = details: biochemical assay; cited from earlier work
[1] = system: panel of DLBCL cell lines; assay: MTT assay, whole panel; format: cell-based; details: all eleven DLBCL cell lines, 72 h
Experimental: (§1) DLBCL cell lines were treated with various concentrations of cerdulatinib for up to 72 h. The metabolic activities of cells were determined with MTT assay according to manufacturer's instruction (Roche Applied Science, Indianapolis, IN) at 72 h time point. IC50 was calculated using the Sigma Plot generated with GraphPad Prism 6 software (GraphPad, La Jolla, CA). Cell growth was measured at every 24 h counting live cells with flow cytometry as previously described. Cells were collected every 24 h and cell viability was determined by the PE Annexin V Apoptosis Detection Kit I (BD Biosciences).

MARK1 = details: biochemical assay; cited from earlier work
p-STAT3, p-AKT and p-ERK = assay: phospho-flow assay in anti-BCR stimulated primary DLBCL cells; format: cell-based, human; details: 0.5 μM or 1 μM, 6 h, then IgM/IgG 15 min, six primary DLBCL samples
Experimental: GCB cell lines OCI-LY1, OCI-LY4, OCI-LY8, OCI-LY18, SUDHL6 and VAL were cultured in Iscove's Modified Dulbecco's Medium (IMDM) supplemented with 20% Fetal Bovine Serum (FBS) and 100 μg/mL penicillin/streptomycin. ABC cell lines SUDHL2 and HBL1 were cultured in RPMI1640 supplemented with 20% FBS and 100 μg/mL penicillin/streptomycin. OCI-LY3 cells were grown in RPMI1640 supplemented with 20% FBS, 100 μg/ml penicillin/streptomycin and HEPES. ABC cell lines OCI-LY10 was cultured in Iscove's Modified Dulbecco's Medium (IMDM) supplemented with 20% human serum and 100 μg/mL penicillin/streptomycin. ABC cell line U2932 was cultured in high glucose RPMI1640 supplemented with 20% FBS, 100 μg/ml penicillin/streptomycin. All cells were maintained in a humidified 37°C/5% CO2 incubator. Frozen primary DLBCL cells were obtained from the tumor bank of the Department of Pathology at Weill Cornell Medical College after Institutional Review Board review and approval. All primary cells were thawed as previously described and cultured in above conditions at 37°C for 6 h in the presence or absence of cerdulatinib followed by BCR stimulations with 5 μg/mL of IgM and IgG. The clinical characteristics of these patients are listed in the Supplemental Table 1. Cerdulatinib was kindly provided by Portola Pharmaceuticals Inc. (South San Francisco, CA) and stored as 10 mM stock at −20°C. […]

TBK1 = details: biochemical assay; cited from earlier work
RSK4 = details: biochemical assay; cited from earlier work
DLBCL cell lines = assay: annexin V / 7-AAD cell viability by flow cytometry; format: cell-based; details: all tested cell lines with the exception of LY18; up to 72 h; concentration- and time-dependent
Experimental: as §1

[2] = system: rat model of autoimmune disease; details: cited from earlier work
[3] = system: splenomegaly induced by chronic BCR stimulation; details: mice; cited from earlier work
[4] = system: LY10 (OCI-LY10) ABC DLBCL cell line; assay: MTT assay (cellular metabolic activity), 72 h; format: cell-based; details: LY10, 72 h
Experimental: as §1

[5] = system: SUDHL2 ABC DLBCL cell line; assay: MTT assay (cellular metabolic activity), 72 h; format: cell-based; details: Homo sapiens, SU-DHL-2; SUDHL2, 72 h
Experimental: as §1

[6] = system: LY8 (OCI-LY8) GCB DLBCL cell line; assay: MTT assay (cellular metabolic activity), 72 h; format: cell-based; details: OCI-Ly8, 72 h
Experimental: as §1

HBL1 ABC DLBCL cell line = assay: MTT assay (cellular metabolic activity), 72 h; format: cell-based; details: HBL1, 72 h
Experimental: as §1

VAL GCB DLBCL cell line = assay: MTT assay (cellular metabolic activity), 72 h; format: cell-based
Experimental: as §1

[7] = system: LY3 (OCI-LY3) ABC DLBCL cell line; assay: MTT assay (cellular metabolic activity), 72 h; format: cell-based; details: Homo sapiens, OCI-Ly3, 72 h
Experimental: as §1

[8] = system: LY1 (OCI-LY1) GCB DLBCL cell line; assay: MTT assay (cellular metabolic activity), 72 h; format: cell-based; details: Homo sapiens, OCI-Ly1, 72 h
Experimental: as §1

[9] = system: SUDHL6 GCB DLBCL cell line; assay: MTT assay (cellular metabolic activity), 72 h; format: cell-based; details: Homo sapiens, SU-DHL-6; SUDHL6, 72 h
Experimental: as §1

[10] = system: U2932 ABC DLBCL cell line; assay: MTT assay (cellular metabolic activity), 72 h; format: cell-based; details: Homo sapiens, U2932, 72 h
Experimental: as §1

[11] = system: LY18 (OCI-LY18) GCB DLBCL cell line; assay: MTT assay (cellular metabolic activity), 72 h; format: cell-based; details: Homo sapiens, OCI-Ly18, 72 h
Experimental: as §1

[12] = system: LY4 (OCI-LY4) GCB DLBCL cell line; assay: MTT assay (cellular metabolic activity), 72 h; format: cell-based; details: LY4, 72 h
Experimental: as §1

JAK2 [13] = details: biochemical assay; cited from earlier work
JAK3 = details: biochemical assay; cited from earlier work
RSK2 = details: biochemical assay; cited from earlier work
MST1 = details: biochemical assay; cited from earlier work
JAK2 [14] = details: cited from earlier work
FLT4 = details: biochemical assay; cited from earlier work
LCK = details: cited from earlier work
RET = details: biochemical assay; cited from earlier work
ARK5 = details: biochemical assay; cited from earlier work
[15] = system: primary human DLBCL samples; assay: MTT viability of primary DLBCL samples; format: cell-based; details: 0.5 μM and 1 μM, 72 h, six primary samples
Experimental: GCB cell lines OCI-LY1, OCI-LY4, OCI-LY8, OCI-LY18, SUDHL6 and VAL were cultured in Iscove's Modified Dulbecco's Medium (IMDM) supplemented with 20% Fetal Bovine Serum (FBS) and 100 μg/mL penicillin/streptomycin. ABC cell lines SUDHL2 and HBL1 were cultured in RPMI1640 supplemented with 20% FBS and 100 μg/mL penicillin/streptomycin. OCI-LY3 cells were grown in RPMI1640 supplemented with 20% FBS, 100 μg/ml penicillin/streptomycin and HEPES. ABC cell lines OCI-LY10 was cultured in Iscove's Modified Dulbecco's Medium (IMDM) supplemented with 20% human serum and 100 μg/mL penicillin/streptomycin. ABC cell line U2932 was cultured in high glucose RPMI1640 supplemented with 20% FBS, 100 μg/ml penicillin/streptomycin. All cells were maintained in a humidified 37°C/5% CO2 incubator. […]
as §1

TYK2 = details: biochemical assay; cited from earlier work

## CCS(=O)(=O)N1CCN(c2ccc(Nc3ncc(C(N)=O)c(NC4CC4)n3)cc2)CC1 [cerdulatinib]
MLK1
  IC50: 5 nM
[1]
  pIC50: ≥ 5.70
MARK1
  IC50: 10 nM
p-STAT3, p-AKT and p-ERK
  p-STAT3, p-AKT and p-ERK levels: marked and simultaneous down-regulation
TBK1
  IC50: 10 nM
RSK4
  IC50: 28 nM
DLBCL cell lines
  cell viability (annexin V-/7-AAD-): reduced
[2]
  inflammation: reduces inflammation
[3]
  splenomegaly: alleviates splenomegaly
[4]
  pIC50: 6.54
[5]
  pIC50: 6.01
[6]
  pIC50: 7.30
HBL1 ABC DLBCL cell line
  pIC50: 6.27
VAL GCB DLBCL cell line
  pIC50: 6.89
[7]
  pIC50: 5.78
[8]
  pIC50: 6.57
[9]
  pIC50: 7.00
[10]
  pIC50: 5.74
[11]
  pIC50: 6.80
[12]
  pIC50: 5.68
JAK2 [13]
  IC50: 6 nM
JAK3
  IC50: 8 nM
RSK2
  IC50: 20 nM
MST1
  IC50: 4 nM
JAK2 [14]
  cellular activity against JAK2: lacking cellular activity
FLT4
  IC50: 51 nM
LCK
  cellular activity against LCK: lacking cellular activity
RET
  IC50: 105 nM
ARK5
  IC50: 4 nM
[15]
  response of primary DLBCL cells (viability, MTT): responded to cerdulatinib in a concentration-dependent manner
TYK2
  IC50: 0.5 nM
